Biological target: T1, AURKC (Aurora C) (Homo sapiens, UniProt Q9UQB9)
T1 sequence (Q9UQB9 1-309): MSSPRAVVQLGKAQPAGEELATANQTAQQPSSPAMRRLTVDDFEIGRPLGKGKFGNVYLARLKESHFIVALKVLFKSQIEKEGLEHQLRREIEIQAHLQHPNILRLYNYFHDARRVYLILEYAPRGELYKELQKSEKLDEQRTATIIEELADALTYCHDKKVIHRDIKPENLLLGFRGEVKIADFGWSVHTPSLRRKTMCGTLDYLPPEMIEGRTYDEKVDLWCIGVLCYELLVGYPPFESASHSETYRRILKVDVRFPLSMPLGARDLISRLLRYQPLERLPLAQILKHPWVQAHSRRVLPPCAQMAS
Test: High-throughput kinase assay
Assay type: biochemical
Conditions: 100 nM; read-out: Percent inhibition of kinase activity in vitro, AURKC (Aurora C)
Protocol: (§1) Screening of Compounds 1-4 against several kinases identified two prominent targets of these compounds as the Aurora A kinase and calcium dependent protein kinase C isoforms α, βI, βII and […] (Tables 1 to 3). IC50s for these two targets were obtained by plotting inhibition levels at 500 nM, 100 nM, 50 nM and 10 nM (FIG. 3). These kinases are directly involved in pathways controlling cell differentiation programs, metastasis signaling, as well as EMT and CSC programming and their overexpression was reported to predict decreased metastasis-free survival.

Row | SMILES | inhibition at 0.1 µM [%]
1 | O=c1c2ccccc2[se]n1-c1nc(NC2CCCCC2)c2nc[nH]c2n1 [Compound 1] | 2
2 | C[C@@H]1C(Nc2nc(-n3[se]c4ccccc4c3=O)nc3[nH]cnc23)C[C@H]2C[C@@H]1C2(C)C (stereo partly drawn) [Compound 3] | 0
3 | O=C1c2ccccc2CN1c1nc(NC2CCCCC2)c2nc[nH]c2n1 [SLLN-6C, reference compound] | 0

Same assay, conditions: 500 nM; read-out: Percent inhibition of kinase activity in vitro, AURKC (Aurora C)

Row | SMILES | inhibition at 0.5 µM [%]
4 | O=c1c2ccccc2[se]n1-c1nc(NC2CCCCC2)c2nc[nH]c2n1 [Compound 1] | 10
5 | C[C@@H]1C(Nc2nc(-n3[se]c4ccccc4c3=O)nc3[nH]cnc23)C[C@H]2C[C@@H]1C2(C)C (stereo partly drawn) [Compound 3] | 7

Biological target: FGFR1 (Homo sapiens, UniProt P11362)
Sequence (P11362 22-822): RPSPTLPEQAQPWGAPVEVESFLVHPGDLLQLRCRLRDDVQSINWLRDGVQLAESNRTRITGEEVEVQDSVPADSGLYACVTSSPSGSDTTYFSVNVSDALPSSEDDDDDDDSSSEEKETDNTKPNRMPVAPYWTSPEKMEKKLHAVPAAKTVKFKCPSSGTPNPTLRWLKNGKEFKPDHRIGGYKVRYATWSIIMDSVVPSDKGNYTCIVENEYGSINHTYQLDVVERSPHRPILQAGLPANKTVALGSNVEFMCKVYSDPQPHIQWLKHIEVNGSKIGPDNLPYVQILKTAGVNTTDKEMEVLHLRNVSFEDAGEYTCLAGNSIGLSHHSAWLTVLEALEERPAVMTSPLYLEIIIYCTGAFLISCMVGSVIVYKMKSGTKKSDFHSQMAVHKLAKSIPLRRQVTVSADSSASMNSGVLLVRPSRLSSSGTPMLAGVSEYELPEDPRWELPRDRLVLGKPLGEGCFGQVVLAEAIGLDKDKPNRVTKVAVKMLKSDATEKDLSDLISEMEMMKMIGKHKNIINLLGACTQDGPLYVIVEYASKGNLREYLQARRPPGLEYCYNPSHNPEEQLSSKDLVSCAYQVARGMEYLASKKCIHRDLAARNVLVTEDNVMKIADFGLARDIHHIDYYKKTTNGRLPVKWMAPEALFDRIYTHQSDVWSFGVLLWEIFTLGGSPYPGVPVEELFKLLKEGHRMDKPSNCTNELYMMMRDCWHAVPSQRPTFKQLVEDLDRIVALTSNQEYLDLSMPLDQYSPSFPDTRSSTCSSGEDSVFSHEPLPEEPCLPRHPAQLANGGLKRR
Test: High-throughput kinase assay
Assay type: biochemical
Conditions: 100 nM; read-out: Percent inhibition of kinase activity in vitro, FGFR1
Protocol: as §1

Row | SMILES | inhibition at 0.1 µM [%]
6 | O=c1c2ccccc2[se]n1-c1nc(NC2CCCCC2)c2nc[nH]c2n1 [Compound 1] | 0
7 | O=C1c2ccccc2CN1c1nc(NC2CCCCC2)c2nc[nH]c2n1 [SLLN-6C, reference compound] | 0

Same assay, conditions: 500 nM; read-out: Percent inhibition of kinase activity in vitro, FGFR1

Row | SMILES | inhibition at 0.5 µM [%]
8 | O=c1c2ccccc2[se]n1-c1nc(NC2CCCCC2)c2nc[nH]c2n1 [Compound 1] | 2
9 | C[C@@H]1C(Nc2nc(-n3[se]c4ccccc4c3=O)nc3[nH]cnc23)C[C@H]2C[C@@H]1C2(C)C (stereo partly drawn) [Compound 3] | 13

Biological target: MET (cMet) (Homo sapiens, UniProt P08581)
Sequence (P08581 25-1390): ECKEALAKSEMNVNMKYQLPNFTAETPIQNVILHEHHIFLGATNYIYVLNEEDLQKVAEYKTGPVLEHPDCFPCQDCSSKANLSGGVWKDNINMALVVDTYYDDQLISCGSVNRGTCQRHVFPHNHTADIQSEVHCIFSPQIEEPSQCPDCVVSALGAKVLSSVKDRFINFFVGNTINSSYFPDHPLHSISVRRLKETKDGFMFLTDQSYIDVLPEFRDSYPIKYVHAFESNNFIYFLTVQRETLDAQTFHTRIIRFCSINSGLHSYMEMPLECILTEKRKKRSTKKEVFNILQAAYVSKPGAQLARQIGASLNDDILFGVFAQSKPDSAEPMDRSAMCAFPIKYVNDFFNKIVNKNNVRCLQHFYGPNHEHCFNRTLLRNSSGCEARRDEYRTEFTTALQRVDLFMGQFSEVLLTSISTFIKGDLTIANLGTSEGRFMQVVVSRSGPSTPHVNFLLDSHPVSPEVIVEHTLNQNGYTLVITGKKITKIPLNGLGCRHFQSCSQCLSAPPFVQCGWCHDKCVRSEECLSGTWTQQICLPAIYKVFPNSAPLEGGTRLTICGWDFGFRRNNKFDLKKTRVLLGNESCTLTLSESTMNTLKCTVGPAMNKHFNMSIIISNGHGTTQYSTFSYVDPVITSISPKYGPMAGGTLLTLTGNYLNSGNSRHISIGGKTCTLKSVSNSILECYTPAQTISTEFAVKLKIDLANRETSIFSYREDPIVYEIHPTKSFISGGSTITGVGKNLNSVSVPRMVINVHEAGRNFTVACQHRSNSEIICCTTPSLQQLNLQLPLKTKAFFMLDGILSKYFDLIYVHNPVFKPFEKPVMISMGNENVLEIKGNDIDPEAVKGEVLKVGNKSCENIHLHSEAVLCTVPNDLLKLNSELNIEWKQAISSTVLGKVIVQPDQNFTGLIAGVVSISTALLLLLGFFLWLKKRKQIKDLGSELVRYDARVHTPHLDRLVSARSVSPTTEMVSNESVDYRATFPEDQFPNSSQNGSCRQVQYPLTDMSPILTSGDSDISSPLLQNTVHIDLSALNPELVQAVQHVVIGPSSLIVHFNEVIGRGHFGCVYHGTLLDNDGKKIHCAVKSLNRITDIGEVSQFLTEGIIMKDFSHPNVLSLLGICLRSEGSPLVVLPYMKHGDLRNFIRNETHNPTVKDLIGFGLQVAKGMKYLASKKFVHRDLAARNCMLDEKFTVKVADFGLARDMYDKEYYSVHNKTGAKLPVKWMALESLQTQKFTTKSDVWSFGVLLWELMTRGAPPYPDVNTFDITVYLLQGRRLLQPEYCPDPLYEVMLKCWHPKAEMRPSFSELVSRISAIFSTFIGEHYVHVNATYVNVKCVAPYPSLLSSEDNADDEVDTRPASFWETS
Test: High-throughput kinase assay
Assay type: biochemical
Conditions: 100 nM; read-out: Percent inhibition of kinase activity in vitro, MET (cMet)
Protocol: as §1

Row | SMILES | inhibition at 0.1 µM [%]
10 | O=c1c2ccccc2[se]n1-c1nc(NC2CCCCC2)c2nc[nH]c2n1 [Compound 1] | 2
11 | C[C@@H]1C(Nc2nc(-n3[se]c4ccccc4c3=O)nc3[nH]cnc23)C[C@H]2C[C@@H]1C2(C)C (stereo partly drawn) [Compound 3] | 0
12 | O=C1c2ccccc2CN1c1nc(NC2CCCCC2)c2nc[nH]c2n1 [SLLN-6C, reference compound] | 0

Same assay, conditions: 500 nM; read-out: Percent inhibition of kinase activity in vitro, MET (cMet)

Row | SMILES | inhibition at 0.5 µM [%]
13 | O=c1c2ccccc2[se]n1-c1nc(NC2CCCCC2)c2nc[nH]c2n1 [Compound 1] | 10
14 | C[C@@H]1C(Nc2nc(-n3[se]c4ccccc4c3=O)nc3[nH]cnc23)C[C@H]2C[C@@H]1C2(C)C (stereo partly drawn) [Compound 3] | 17

Biological target: PDGFRA (PDGFR alpha) (Homo sapiens, UniProt P16234)
Sequence (P16234 24-1089): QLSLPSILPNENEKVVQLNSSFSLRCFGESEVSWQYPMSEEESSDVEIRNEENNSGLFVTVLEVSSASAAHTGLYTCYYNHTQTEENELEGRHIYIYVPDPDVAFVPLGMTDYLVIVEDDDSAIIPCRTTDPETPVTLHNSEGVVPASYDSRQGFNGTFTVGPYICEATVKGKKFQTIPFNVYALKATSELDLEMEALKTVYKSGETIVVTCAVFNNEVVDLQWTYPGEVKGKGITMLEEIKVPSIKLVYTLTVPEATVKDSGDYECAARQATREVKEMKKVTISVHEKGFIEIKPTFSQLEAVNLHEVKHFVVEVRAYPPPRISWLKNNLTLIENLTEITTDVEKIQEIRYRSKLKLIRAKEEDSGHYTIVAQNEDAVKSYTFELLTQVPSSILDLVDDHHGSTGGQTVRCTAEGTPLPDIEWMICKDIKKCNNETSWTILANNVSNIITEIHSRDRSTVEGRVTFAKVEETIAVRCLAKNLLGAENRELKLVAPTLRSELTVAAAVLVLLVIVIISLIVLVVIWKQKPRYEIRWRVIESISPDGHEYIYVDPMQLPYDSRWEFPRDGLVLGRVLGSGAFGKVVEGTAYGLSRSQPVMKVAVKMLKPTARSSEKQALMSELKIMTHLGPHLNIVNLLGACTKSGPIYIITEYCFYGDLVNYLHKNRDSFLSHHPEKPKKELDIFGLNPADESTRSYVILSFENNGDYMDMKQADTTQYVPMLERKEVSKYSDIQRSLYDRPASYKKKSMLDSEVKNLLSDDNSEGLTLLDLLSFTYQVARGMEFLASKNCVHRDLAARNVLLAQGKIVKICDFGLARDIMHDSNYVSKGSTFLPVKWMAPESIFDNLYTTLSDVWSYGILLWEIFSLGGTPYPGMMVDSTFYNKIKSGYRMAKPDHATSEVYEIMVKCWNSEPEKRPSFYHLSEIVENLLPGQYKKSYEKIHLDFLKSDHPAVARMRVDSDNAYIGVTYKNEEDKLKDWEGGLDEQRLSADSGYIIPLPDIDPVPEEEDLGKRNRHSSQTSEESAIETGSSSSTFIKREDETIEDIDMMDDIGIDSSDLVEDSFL
Test: High-throughput kinase assay
Assay type: biochemical
Conditions: 100 nM; read-out: Percent inhibition of kinase activity in vitro, PDGFRA (PDGFR alpha)
Protocol: as §1

Row | SMILES | inhibition at 0.1 µM [%]
15 | O=c1c2ccccc2[se]n1-c1nc(NC2CCCCC2)c2nc[nH]c2n1 [Compound 1] | 0
16 | O=C1c2ccccc2CN1c1nc(NC2CCCCC2)c2nc[nH]c2n1 [SLLN-6C, reference compound] | 0

Same assay, conditions: 500 nM; read-out: Percent inhibition of kinase activity in vitro, PDGFRA (PDGFR alpha)

Row | SMILES | inhibition at 0.5 µM [%]
17 | O=c1c2ccccc2[se]n1-c1nc(NC2CCCCC2)c2nc[nH]c2n1 [Compound 1] | 3
18 | C[C@@H]1C(Nc2nc(-n3[se]c4ccccc4c3=O)nc3[nH]cnc23)C[C@H]2C[C@@H]1C2(C)C (stereo partly drawn) [Compound 3] | 5

Biological target: PRKCB1 (PKC beta I) (Homo sapiens, UniProt P05771)
Test: High-throughput kinase assay
Assay type: biochemical
Conditions: 50 nM; read-out: Percent inhibition of kinase activity in vitro, PRKCB1 (PKC beta I)
Protocol: as §1

Row | SMILES | inhibition at 0.05 µM [%]
19 | O=c1c2ccccc2[se]n1-c1nc(NC2CCCCC2)c2nc[nH]c2n1 [Compound 1] | 59
20 | O=C1c2ccccc2CN1c1nc(NC2CCCCC2)c2nc[nH]c2n1 [SLLN-6C, reference compound] | 5

Biological target: PRKCB2 (PKC beta II) (Homo sapiens, UniProt P05771)
Test: High-throughput kinase assay
Assay type: biochemical
Conditions: 50 nM; read-out: Percent inhibition of kinase activity in vitro, PRKCB2 (PKC beta II)
Protocol: as §1

Row | SMILES | inhibition at 0.05 µM [%]
21 | O=c1c2ccccc2[se]n1-c1nc(NC2CCCCC2)c2nc[nH]c2n1 [Compound 1] | 62
22 | O=C1c2ccccc2CN1c1nc(NC2CCCCC2)c2nc[nH]c2n1 [SLLN-6C, reference compound] | 5

Biological target: PRKCG (PKC gamma) (Homo sapiens, UniProt P05129)
Test: High-throughput kinase assay
Assay type: biochemical
Conditions: 50 nM; read-out: Percent inhibition of kinase activity in vitro, PRKCG (PKC gamma)
Protocol: as §1

Row | SMILES | inhibition at 0.05 µM [%]
23 | O=c1c2ccccc2[se]n1-c1nc(NC2CCCCC2)c2nc[nH]c2n1 [Compound 1] | 45
24 | O=C1c2ccccc2CN1c1nc(NC2CCCCC2)c2nc[nH]c2n1 [SLLN-6C, reference compound] | 0

Biological target: PRKCH (PKC eta) (Homo sapiens, UniProt P24723)
Sequence (P24723 whole entry): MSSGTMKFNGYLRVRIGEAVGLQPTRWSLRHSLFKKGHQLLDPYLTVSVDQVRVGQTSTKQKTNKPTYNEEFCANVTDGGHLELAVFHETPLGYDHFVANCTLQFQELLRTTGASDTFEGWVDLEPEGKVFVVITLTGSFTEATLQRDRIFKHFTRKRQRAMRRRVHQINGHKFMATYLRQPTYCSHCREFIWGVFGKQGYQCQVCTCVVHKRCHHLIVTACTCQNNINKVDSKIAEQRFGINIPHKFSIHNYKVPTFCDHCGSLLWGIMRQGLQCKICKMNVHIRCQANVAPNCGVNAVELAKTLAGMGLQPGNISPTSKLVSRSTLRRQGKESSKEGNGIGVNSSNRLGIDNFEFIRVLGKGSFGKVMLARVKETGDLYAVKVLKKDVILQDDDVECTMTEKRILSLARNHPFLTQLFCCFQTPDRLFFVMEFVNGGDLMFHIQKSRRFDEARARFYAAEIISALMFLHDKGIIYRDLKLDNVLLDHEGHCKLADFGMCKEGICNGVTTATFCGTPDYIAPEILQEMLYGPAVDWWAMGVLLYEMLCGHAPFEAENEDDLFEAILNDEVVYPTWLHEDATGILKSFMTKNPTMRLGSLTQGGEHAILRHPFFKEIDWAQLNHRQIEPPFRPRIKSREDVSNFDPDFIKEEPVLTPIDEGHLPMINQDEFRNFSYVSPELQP
Test: High-throughput kinase assay
Assay type: biochemical
Conditions: 50 nM; read-out: Percent inhibition of kinase activity in vitro, PRKCH (PKC eta)
Protocol: as §1

Row | SMILES | inhibition at 0.05 µM [%]
25 | O=c1c2ccccc2[se]n1-c1nc(NC2CCCCC2)c2nc[nH]c2n1 [Compound 1] | 0
26 | O=C1c2ccccc2CN1c1nc(NC2CCCCC2)c2nc[nH]c2n1 [SLLN-6C, reference compound] | 0

Biological target: T2, PRKCZ (PKC zeta) (Homo sapiens, UniProt Q05513)
T2 sequence (Q05513 1-592): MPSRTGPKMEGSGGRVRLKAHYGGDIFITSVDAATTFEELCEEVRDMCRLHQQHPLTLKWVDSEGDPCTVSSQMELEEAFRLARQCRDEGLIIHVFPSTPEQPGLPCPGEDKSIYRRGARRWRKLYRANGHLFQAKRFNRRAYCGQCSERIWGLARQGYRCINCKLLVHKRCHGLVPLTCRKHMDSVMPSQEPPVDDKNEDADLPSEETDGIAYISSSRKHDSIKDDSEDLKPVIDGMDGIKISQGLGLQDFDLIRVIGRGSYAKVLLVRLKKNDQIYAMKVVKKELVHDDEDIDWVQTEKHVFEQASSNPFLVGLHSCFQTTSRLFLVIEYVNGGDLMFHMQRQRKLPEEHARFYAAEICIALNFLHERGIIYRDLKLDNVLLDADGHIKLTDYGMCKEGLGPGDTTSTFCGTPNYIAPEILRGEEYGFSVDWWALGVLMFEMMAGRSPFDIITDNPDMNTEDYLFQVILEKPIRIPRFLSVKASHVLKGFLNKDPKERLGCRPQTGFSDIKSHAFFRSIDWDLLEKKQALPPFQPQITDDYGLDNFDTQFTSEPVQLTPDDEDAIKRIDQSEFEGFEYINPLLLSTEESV
Test: High-throughput kinase assay
Assay type: biochemical
Conditions: 50 nM; read-out: Percent inhibition of kinase activity in vitro, PRKCZ (PKC zeta)
Protocol: as §1

Row | SMILES | inhibition at 0.05 µM [%]
27 | O=c1c2ccccc2[se]n1-c1nc(NC2CCCCC2)c2nc[nH]c2n1 [Compound 1] | 9
28 | O=C1c2ccccc2CN1c1nc(NC2CCCCC2)c2nc[nH]c2n1 [SLLN-6C, reference compound] | 9

Biological target: RAF1 (cRAF) Y340D Y341D (Homo sapiens, UniProt P04049, Y340D/Y341D)
Sequence (P04049 whole entry Y340D/Y341D): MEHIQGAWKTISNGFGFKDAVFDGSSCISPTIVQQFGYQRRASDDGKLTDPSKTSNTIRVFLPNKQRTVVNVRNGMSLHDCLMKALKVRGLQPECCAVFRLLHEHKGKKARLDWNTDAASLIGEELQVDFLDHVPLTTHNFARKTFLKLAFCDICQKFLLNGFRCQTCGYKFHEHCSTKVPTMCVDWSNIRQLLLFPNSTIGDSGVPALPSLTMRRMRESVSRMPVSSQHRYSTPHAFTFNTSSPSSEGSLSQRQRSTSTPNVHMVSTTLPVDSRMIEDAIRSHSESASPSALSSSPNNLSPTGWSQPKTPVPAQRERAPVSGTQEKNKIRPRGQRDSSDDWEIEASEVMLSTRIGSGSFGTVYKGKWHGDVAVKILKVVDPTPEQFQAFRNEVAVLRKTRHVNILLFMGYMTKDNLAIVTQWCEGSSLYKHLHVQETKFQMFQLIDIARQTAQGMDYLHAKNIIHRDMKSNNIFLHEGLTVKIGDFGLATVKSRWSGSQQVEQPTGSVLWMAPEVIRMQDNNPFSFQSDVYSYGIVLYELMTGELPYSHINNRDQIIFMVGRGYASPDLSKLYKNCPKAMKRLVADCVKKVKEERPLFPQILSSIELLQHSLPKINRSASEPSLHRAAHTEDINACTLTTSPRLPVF
Test: High-throughput kinase assay
Assay type: biochemical
Conditions: 500 nM; read-out: Percent inhibition of kinase activity in vitro, RAF1 (cRAF) Y340D Y341D
Protocol: as §1

Row | SMILES | inhibition at 0.5 µM [%]
29 | O=c1c2ccccc2[se]n1-c1nc(NC2CCCCC2)c2nc[nH]c2n1 [Compound 1] | 4
30 | C[C@@H]1C(Nc2nc(-n3[se]c4ccccc4c3=O)nc3[nH]cnc23)C[C@H]2C[C@@H]1C2(C)C (stereo partly drawn) [Compound 3] | 10

Biological target: SRC (Homo sapiens, UniProt P12931)
Sequence (P12931 whole entry): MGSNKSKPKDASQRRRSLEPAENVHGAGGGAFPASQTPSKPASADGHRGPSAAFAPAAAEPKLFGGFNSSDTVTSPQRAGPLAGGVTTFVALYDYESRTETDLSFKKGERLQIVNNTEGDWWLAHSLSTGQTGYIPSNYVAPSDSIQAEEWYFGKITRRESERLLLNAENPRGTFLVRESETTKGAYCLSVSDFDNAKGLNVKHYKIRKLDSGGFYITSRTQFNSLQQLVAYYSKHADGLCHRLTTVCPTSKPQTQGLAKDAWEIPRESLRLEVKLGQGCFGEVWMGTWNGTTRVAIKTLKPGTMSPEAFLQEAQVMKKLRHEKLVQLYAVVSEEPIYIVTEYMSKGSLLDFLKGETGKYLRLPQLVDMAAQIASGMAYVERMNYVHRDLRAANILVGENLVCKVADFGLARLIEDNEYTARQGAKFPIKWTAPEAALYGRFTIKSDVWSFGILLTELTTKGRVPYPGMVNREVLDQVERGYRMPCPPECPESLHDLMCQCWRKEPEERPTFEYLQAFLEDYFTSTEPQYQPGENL
Test: High-throughput kinase assay
Assay type: biochemical
Conditions: 100 nM; read-out: Percent inhibition of kinase activity in vitro, SRC
Protocol: as §1

Row | SMILES | inhibition at 0.1 µM [%]
31 | O=c1c2ccccc2[se]n1-c1nc(NC2CCCCC2)c2nc[nH]c2n1 [Compound 1] | 1
32 | C[C@@H]1C(Nc2nc(-n3[se]c4ccccc4c3=O)nc3[nH]cnc23)C[C@H]2C[C@@H]1C2(C)C (stereo partly drawn) [Compound 3] | 4
33 | O=C1c2ccccc2CN1c1nc(NC2CCCCC2)c2nc[nH]c2n1 [SLLN-6C, reference compound] | 3

Same assay, conditions: 500 nM; read-out: Percent inhibition of kinase activity in vitro, SRC

Row | SMILES | inhibition at 0.5 µM [%]
34 | O=c1c2ccccc2[se]n1-c1nc(NC2CCCCC2)c2nc[nH]c2n1 [Compound 1] | 5
35 | C[C@@H]1C(Nc2nc(-n3[se]c4ccccc4c3=O)nc3[nH]cnc23)C[C@H]2C[C@@H]1C2(C)C (stereo partly drawn) [Compound 3] | 7

Biological target: SYK (Homo sapiens, UniProt P43405)
Test: High-throughput kinase assay
Assay type: biochemical
Conditions: 100 nM; read-out: Percent inhibition of kinase activity in vitro, SYK
Protocol: as §1

Row | SMILES | inhibition at 0.1 µM [%]
36 | O=c1c2ccccc2[se]n1-c1nc(NC2CCCCC2)c2nc[nH]c2n1 [Compound 1] | 6
37 | C[C@@H]1C(Nc2nc(-n3[se]c4ccccc4c3=O)nc3[nH]cnc23)C[C@H]2C[C@@H]1C2(C)C (stereo partly drawn) [Compound 3] | 0
38 | O=C1c2ccccc2CN1c1nc(NC2CCCCC2)c2nc[nH]c2n1 [SLLN-6C, reference compound] | 2

Same assay, conditions: 500 nM; read-out: Percent inhibition of kinase activity in vitro, SYK

Row | SMILES | inhibition at 0.5 µM [%]
39 | O=c1c2ccccc2[se]n1-c1nc(NC2CCCCC2)c2nc[nH]c2n1 [Compound 1] | 8
40 | C[C@@H]1C(Nc2nc(-n3[se]c4ccccc4c3=O)nc3[nH]cnc23)C[C@H]2C[C@@H]1C2(C)C (stereo partly drawn) [Compound 3] | 24

Biological target: T3, TGFBR1 (ALK5) (Homo sapiens, UniProt P36897)
T3 sequence (P36897 34-503): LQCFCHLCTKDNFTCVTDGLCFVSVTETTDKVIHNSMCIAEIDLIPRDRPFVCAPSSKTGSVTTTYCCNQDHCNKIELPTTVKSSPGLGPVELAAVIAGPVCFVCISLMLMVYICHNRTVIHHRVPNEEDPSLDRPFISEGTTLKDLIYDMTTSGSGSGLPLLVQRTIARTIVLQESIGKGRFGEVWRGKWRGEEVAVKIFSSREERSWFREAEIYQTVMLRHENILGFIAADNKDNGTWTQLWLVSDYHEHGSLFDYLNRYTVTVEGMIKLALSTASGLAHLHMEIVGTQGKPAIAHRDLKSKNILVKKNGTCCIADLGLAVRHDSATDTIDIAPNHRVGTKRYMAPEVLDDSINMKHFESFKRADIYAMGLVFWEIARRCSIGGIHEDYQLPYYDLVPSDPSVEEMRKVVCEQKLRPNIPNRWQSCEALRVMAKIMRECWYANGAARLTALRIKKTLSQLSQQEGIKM
Test: High-throughput kinase assay
Assay type: biochemical
Conditions: 100 nM; read-out: Percent inhibition of kinase activity in vitro, TGFBR1 (ALK5)
Protocol: as §1

Row | SMILES | inhibition at 0.1 µM [%]
41 | O=c1c2ccccc2[se]n1-c1nc(NC2CCCCC2)c2nc[nH]c2n1 [Compound 1] | 0
42 | C[C@@H]1C(Nc2nc(-n3[se]c4ccccc4c3=O)nc3[nH]cnc23)C[C@H]2C[C@@H]1C2(C)C (stereo partly drawn) [Compound 3] | 3
43 | O=C1c2ccccc2CN1c1nc(NC2CCCCC2)c2nc[nH]c2n1 [SLLN-6C, reference compound] | 0

Same assay, conditions: 500 nM; read-out: Percent inhibition of kinase activity in vitro, TGFBR1 (ALK5)

Row | SMILES | inhibition at 0.5 µM [%]
44 | O=c1c2ccccc2[se]n1-c1nc(NC2CCCCC2)c2nc[nH]c2n1 [Compound 1] | 0
45 | C[C@@H]1C(Nc2nc(-n3[se]c4ccccc4c3=O)nc3[nH]cnc23)C[C@H]2C[C@@H]1C2(C)C (stereo partly drawn) [Compound 3] | 0

From patent publication US10711002B2, “Purine compounds and method for the treatment of cancer” (THE ROYAL INSTITUTION FOR THE ADVANCEMENT OF …, priority 2016, dated 2020)
